Where “and” joins values, the source holds several entries; their conditions need not be identical. Equal values may be shown once.
Key:
Type in all cases: in vivo, human
[1] = system: expert panel of seven people; experiment: Scoring of sweet taste aspects versus base solution (5% sucrose and 0.03% citric acid); details: for Astringent, average score / Lingering Sweet, average score / Overall Sweet, average score / Upfront Sweet, average score / Volatile Off-Note, average score: score versus base, 0 same, 3 much higher, −3 much lower
[2] = system: Four sweet sensitive panelists; experiment: Iso-sweet potency versus standard sucrose solutions; details: for Iso-sweet potency: calculated from mean sweet equivalence concentrations
Procedure: 10 mg iso-mogroside VI (FIG. 7) was dissolved in […] water to make 100 ppm iso-mogroside VI solution. The working solution of 11-epi-mogroside V (FIG. 8) was 374 ppm (9.34 mg 11-epi-mogroside V in 25 mL water), A series of standard sucrose solutions were prepared (0.50, 0.75, 1.00, 1.25, 1.50%) as sweetness references.
Four sweet sensitive panelists evaluated 100 ppm iso-mogroside VI and 374 ppm 11-epi-mogroside V and the sucrose standards, and were asked to give sweet equivalence concentrations to sucrose. The mean sweet equivalence concentrations of each compound were used to calculate the iso-sweet potency.

[3] = system: expert panel of three people (trained flavourists); experiment: Descriptive taste test in 5% sucrose and 0.03% citric acid compared to Luo Han Guo extract; details: for Taste description: added to 5% sucrose and 0.03% citric acid; for Sweet quality compared to Luo Han Guo extract: in 5% sucrose and 0.03% citric acid
Procedure: (§1) The taste of various concentrations of mixture 1 was tested by an expert panel of three people (trained flavourists) in solutions containing 5% sucrose and 0.03% citric acid. The taste was compared to the Luo Han Guo extract used in Example 2 (obtained from Azile LCC (Rolling Hills Est, California) (extract 1 of Example 1 above) and containing about 68 wt % mogrosides) (combined with the same 5% sucrose and 0.03% citric acid solution).
as §1, with “these sweeteners” for “various concentrations of mixture 1”, “mogrosides).” for “mogrosides) (combined with the same 5% sucrose and 0.03% citric acid solution).”

[4] = system: sweet sensitive taste panel; experiment: Sweetness enhancement: sweetener added to 5% (w/v) sucrose, ranked against 5, 6, 6.5 and 7% (w/v) sucrose solutions; details: for Average Score: ranked against 5, 6, 6.5 and 7% sucrose; for Sweetness enhancer effect: increase in sweetness of 5% (w/v) sucrose greater than sweetness of the sweetener alone
Procedure: This solution was then ranked against 5, 6, 6.5 and 7% (w/v) sucrose solutions. This was repeated for 45 ppm Luo Han Guo extract. The average score of each solution was determined. […] These solutions were then ranked against 5, 6, 6.5 and 7% (w/v) sucrose solutions. The average score of each solution was determined.

[5] = system: sweet sensitive taste panel; experiment: Sweetness ranking against sucrose solutions to determine sucrose equivalence
From the text: The term “sucrose equivalence” refers to the equivalence in sweetness of a composition containing at least one non-sucrose sweetener to a reference sucrose solution. Typically, taste panellists are trained to detect sweetness of reference sucrose solutions containing between 1% and 15% sucrose (w/v). Other non-sucrose sweeteners may then be tasted at a series of dilutions to determine the concentration of the non-sucrose sweetener that is as sweet (i.e. isosweet) to a given sucrose reference. The term “isosweet” refers to compositions that have equivalent sweetness. Typically, the sweetness of a given composition is measured with reference to a solution of sucrose. See “A Systematic Study of Concentration-Response Relationships of Sweeteners,” G. E. DuBois, D. E. Walters, S. S. Schiffman, Z. S. Warwick, B. J. Booth, S. D. Pecore, K. Gibes, B. T. Carr, and L. M. Brands, in Sweeteners: Discovery, Molecular Design and Chemoreception, D. E. Walters, F. T. Orthoefer, and G. E. DuBois, Eds., American Chemical Society, Washington, D.C. (1991), pp 261-276.
A sweet sensitive taste panel ranked the sweetness of solutions of a mixture of sweeteners (“Mixture 1”) in relation to sucrose solutions at a range of concentrations to determine sucrose equivalence. Mixture 1 was a combination of fractions 11 to 18 of Example 2 and contained 8.16 wt % 11-O-mogroside V and 61.6 wt % mogroside V. The results are shown in Table 6 below.
A sweet sensitive taste panel ranked the sweetness of solutions of various sweeteners (mogroside V, mogroside IV, siamenoside, neomogroside, 11-O-mogroside V) in relation to sucrose solutions at a range of concentrations to determine sucrose equivalence. The sweeteners were obtained using an Agilent 1100 preparative HPLC system with a Phenomenex Luna C18 (2) column (5 μm, 210×21.4 mm).

3-O-β-D-glucopyranosyl(1→6)-β-D-glucopyranosyl-mogrol-24-O-β-D-glucopyranosyl-(1→6-[β-D-glucopyranosyl-(1→4)-β-D-glucopyranosyl-(1→2)]-β-D-glucopyranosyl [iso-mogroside VI]
Comments ([1]; Table 20, 25 ppm in 5% sucrose and 0.03% citric acid): Slightly acidic | Astringent, average score ([1]; Table 20, 25 ppm): 0 | Lingering Sweet, average score ([1]; Table 20, 25 ppm): 0.2 | Overall Sweet, average score ([1]; Table 20, 25 ppm): 0.2 | Upfront Sweet, average score ([1]; Table 20, 25 ppm): 0.2 | Volatile Off-Note, average score ([1]; Table 20, 25 ppm): 0 | Sweet equivalence concentration to sucrose ([2]; 100 ppm in water): 0.91 % sucrose | Iso-sweet potency [2]: 91 times of sweetness of sucrose

C[C@H](CC[C@@H](O[C@@H]1O[C@H](CO[C@@H]2O[C@H](CO)[C@@H](O)[C@H](O)[C@H]2O)[C@@H](O)[C@H](O)[C@H]1O[C@@H]1O[C@H](CO)[C@@H](O)[C@H](O)[C@H]1O)C(C)(C)O)[C@H]1CC[C@@]2(C)[C@@H]3CC=C4[C@@H](CC[C@H](O[C@@H]5O[C@H](CO[C@@H]6O[C@H](CO)[C@@H](O)[C@H](O)[C@H]6O)[C@@H](O)[C@H](O)[C@H]5O)C4(C)C)[C@]3(C)[C@@H](O)C[C@]12C [11-epi-mogroside V, 3-O-β-D-glucopyranosyl(1→6)-β-D-glucopyranosyl-11β-OH-mogrol-24-O-β-D-glucopyranosyl-(1→2)-[β-D-glucopyranosyl-(1→6)]-β-D-glucopyranosyl]
Astringent, average score ([1]; Table 20, 25 ppm): 0 | Lingering Sweet, average score ([1]; Table 20, 25 ppm): 0 | Overall Sweet, average score ([1]; Table 20, 25 ppm): 0.17 | Upfront Sweet, average score ([1]; Table 20, 25 ppm): 0.33 | Volatile Off-Note, average score ([1]; Table 20, 25 ppm): 0 | Sweet equivalence concentration to sucrose ([2]; 374 ppm in water): 1.31 % sucrose | Iso-sweet potency [2]: 35 times of sweetness of sucrose

C[C@H](CC[C@@H](O[C@@H]1O[C@H](CO)[C@@H](O)[C@H](O)[C@H]1O[C@@H]1O[C@H](CO)[C@@H](O)[C@H](O)[C@H]1O)C(C)(C)O)[C@H]1CC[C@@]2(C)[C@H]3CC=C4[C@@H](CC[C@H](O[C@@H]5O[C@H](CO[C@@H]6O[C@H](CO)[C@@H](O)[C@H](O)[C@H]6O)[C@@H](O)[C@H](O)[C@H]5O)C4(C)C)[C@]3(C)[C@H](O)C[C@]12C [Mogroside IV]
Astringent, average score ([1]; Table 16, 30 ppm): 0 | Lingering Sweet, average score ([1]; Table 16, 30 ppm): 0 | Overall Sweet, average score ([1]; Table 16, 30 ppm): 0.4 | Upfront Sweet, average score ([1]; Table 16, 30 ppm): 0.4 | Volatile Off-Note, average score ([1]; Table 16, 30 ppm): 0 | Taste description [3]: good and similar sweetness as mogroside V | Sweet quality compared to Luo Han Guo extract [3]: better than Luo Han Guo extract in terms of sweet quality | Average Score ([4]; 30 ppm in 5% (w/v) sucrose): 6.2 | Total of sweetness ranks ([5]; Table 10, 25 ppm Mogroside IV, 7 panelists): 13 | Total of sweetness ranks ([5]; Table 10, 30 ppm Mogroside IV, 7 panelists): 20

C[C@H](CC[C@@H](O[C@@H]1O[C@H](CO[C@H]2O[C@H](CO)[C@H](O)[C@H](O)[C@H]2O)[C@@H](O)[C@H](O)[C@H]1O[C@@H]1O[C@H](CO)[C@@H](O)[C@H](O)[C@H]1O)C(C)(C)O)[C@H]1CC[C@@]2(C)[C@H]3CC=C4[C@@H](CC[C@H](O[C@@H]5O[C@H](CO[C@@H]6O[C@H](CO)[C@@H](O)[C@H](O)[C@H]6OC6O[C@H](CO)[C@@H](O)[C@H](O)[C@H]6O)[C@@H](O)[C@H](O)[C@H]5O)C4(C)C)[C@]3(C)[C@H](O)C[C@]12C (stereo partly shown) [Neomogroside]
Astringent, average score ([1]; Table 16, 30 ppm): 0 | Lingering Sweet, average score ([1]; Table 16, 30 ppm): 0.4 | Overall Sweet, average score ([1]; Table 16, 30 ppm): 1.4 | Upfront Sweet, average score ([1]; Table 16, 30 ppm): 1 | Volatile Off-Note, average score ([1]; Table 16, 30 ppm): 0 | Taste description [3]: sweetness, but slightly bitter aftertaste | Sweet quality compared to Luo Han Guo extract [3]: better than Luo Han Guo extract in terms of sweet quality | Average Score ([4]; 30 ppm in 5% (w/v) sucrose): 6.35 | Sweetness enhancer effect [4]: act as sweetness enhancers | Total of sweetness ranks ([5]; Table 13, 25 ppm Neomogroside, 9 panelists): 16 | Total of sweetness ranks ([5]; Table 13, 30 ppm Neomogroside, 9 panelists): 29

C[C@H](CC[C@@H](O[C@@H]1O[C@H](CO[C@@H]2O[C@H](CO)[C@@H](O)[C@H](O)[C@H]2O)[C@@H](O)[C@H](O)[C@H]1O[C@@H]1O[C@H](CO)[C@@H](O)[C@H](O)[C@H]1O)C(C)(C)O)[C@H]1CC[C@@]2(C)[C@H]3CC=C4[C@@H](CC[C@H](O[C@@H]5O[C@H](CO)[C@@H](O)[C@H](O)[C@H]5O)C4(C)C)[C@]3(C)[C@H](O)C[C@]12C [Siamenoside]
Astringent, average score ([1]; Table 16, 25 ppm): 0.4 | Lingering Sweet, average score ([1]; Table 16, 25 ppm): 0.6 | Overall Sweet, average score ([1]; Table 16, 25 ppm): 1.8 | Upfront Sweet, average score ([1]; Table 16, 25 ppm): 1.4 | Volatile Off-Note, average score ([1]; Table 16, 25 ppm): 0.2 | Taste description [3]: more sweet body, sweeter, rounder with a little more upfront and more round lasting sweet | Sweet quality compared to Luo Han Guo extract [3]: better than Luo Han Guo extract in terms of sweet quality | Average Score ([4]; 25 ppm in 5% (w/v) sucrose): 6.4 | Sweetness enhancer effect [4]: act as sweetness enhancers | Total of sweetness ranks ([5]; Table 11, Siamenoside 20 ppm, 7 panelists): 19 | Sweetness rank by panelist ([5]; Table 11, Siamenoside 25 ppm): 2 and 3 and 4 | Total of sweetness ranks ([5]; Table 11, Siamenoside 25 ppm, 7 panelists): 19

OC[C@H]1O[C@@](CO)(O[C@H]2O[C@H](CO)[C@@H](O)[C@H](O)[C@H]2O)[C@@H](O)[C@@H]1O [Sucrose]
Total of sweetness ranks ([5]; Table 6, 1% Sucrose reference, 10 panelists): 33 | Sweetness rank by panelist ([5]; Table 6, 1.5% Sucrose reference): 4 and 5 | Total of sweetness ranks ([5]; Table 6, 1.5% Sucrose reference, 10 panelists): 47 | Total of sweetness ranks ([5]; Table 9, 0.5% Sucrose reference, 6 panelists): 8 | Sweetness rank by panelist ([5]; Table 9, 1% Sucrose reference): 3 and 2 and 4 | Total of sweetness ranks ([5]; Table 9, 1% Sucrose reference, 6 panelists): 19 | Sweetness rank by panelist ([5]; Table 9, 1.5% Sucrose reference): 5 and 4 | Total of sweetness ranks ([5]; Table 9, 1.5% Sucrose reference, 6 panelists): 29 | Total of sweetness ranks ([5]; Table 10, Sucrose 0.5% reference, 7 panelists): 14 | Total of sweetness ranks ([5]; Table 10, Sucrose 1% reference, 7 panelists): 23 | Sweetness rank by panelist ([5]; Table 10, Sucrose 1.5% reference): 5 | Total of sweetness ranks ([5]; Table 10, Sucrose 1.5% reference, 7 panelists): 35 | Sweetness rank by panelist ([5]; Table 11, Sucrose 0.5% reference): 1 and 2 | Total of sweetness ranks ([5]; Table 11, Sucrose 0.5% reference, 7 panelists): 8 | Sweetness rank by panelist ([5]; Table 11, Sucrose 1% reference): 4 and 2 and 3 | Total of sweetness ranks ([5]; Table 11, Sucrose 1% reference, 7 panelists): 24 | Sweetness rank by panelist ([5]; Table 11, Sucrose 1.5% reference): 5 | Total of sweetness ranks ([5]; Table 11, Sucrose 1.5% reference, 7 panelists): 35 | Total of sweetness ranks ([5]; Table 12, Sucrose 0.5% reference, 7 panelists): 9 | Sweetness rank by panelist ([5]; Table 12, Sucrose 1% reference): 2 and 3 | Total of sweetness ranks ([5]; Table 12, Sucrose 1% reference, 7 panelists): 17 | Sweetness rank by panelist ([5]; Table 12, Sucrose 1.5% reference): 3 and 4 | Total of sweetness ranks ([5]; Table 12, Sucrose 1.5% reference, 7 panelists): 27 | Total of sweetness ranks ([5]; Table 13, 0.5% Sucrose reference, 9 panelists): 15 | Sweetness rank by panelist ([5]; Table 13, 1% Sucrose reference): 3 and 4 and 2 | Total of sweetness ranks ([5]; Table 13, 1% Sucrose reference, 9 panelists): 31 | Sweetness rank by panelist ([5]; Table 13, 1.5% Sucrose reference): 5 and 4 | Total of sweetness ranks ([5]; Table 13, 1.5% Sucrose reference, 9 panelists): 44
